{"source": "paper PMC12349723", "about": "“Computationally accelerated identification of P-glycoprotein inhibitors” (PLOS One, 2025)", "assay_type_in_all_cases": "cell-based, human", "key": {"DU145-TXR cells": {"system": "DU145-TXR cells", "test": "MTT viability assay, reversal of MDR (re-sensitization to paclitaxel) in P-gp overexpressing DU145-TXR cells", "conditions": "DU145-TXR; for % Survival, mean: mean of 8 samples", "method": "(§1) The chemotherapeutic sensitive DU145 human prostate cancer cells and the multidrug resistant sub-line, DU145-TXR, were generous gifts from Dr. Evan Keller (University of Michigan, Ann Arbor, MI). The MDR, P-gp overexpressing DU145-TXR cells were maintained under positive selection pressure by supplementing complete medium with 10 nM paclitaxel (Acros Organics, NJ). In addition to the aforementioned cell lines, the chemotherapeutic sensitive A2780 ovarian cancer cells (93112519, Sigma) and the multidrug resistant A2780-ADR (93112520, Sigma) were maintained in complete RPMI media consisting of RPMI-1640 with L-glutamine, 10% fetal bovine serum (FBS; Corning), 100 U/mL penicillin and 100 μg/mL streptomycin in a humidified incubator at 37 °C and 5% CO2. The MDR, P-gp overexpressing A2780-ADR cell line was maintained under positive selection pressure by supplementing complete medium with 100 nM doxorubicin (Fisher Scientific, NJ). The non-cancerous HFL1 (human lung fibroblast) cell line cell line was a generous gift from Dr. Robert Harrod (Southern Methodist University, Dallas, TX) and was maintained in complete F12K media consisting of F12K with 10% fetal bovine serum, 100 U/mL penicillin, and 100 µg/mL streptomycin (Gibco). Flasks and 96 well plates that were used with the non-cancerous line HFL1 were pre-treated with 0.1 mg/ml Collagen Type 1 (Gibco) and rinsed with PBS (Fisher).\n(§2) Culture of the DU145, DU145-TXR, and HFL1 cell lines was performed as described in [8]. Culture of the A2780 and A2780-ADR cell lines was performed as described in [9]. MTT assays were performed as described in [8] with minor modifications. LC-MS/MS accumulation assays were performed as described in {Nanayakkara, 2018 #173} [9] with some modifications. […] The inhibitor concentration was lowered to 15 µM here, as the goal of the study was to identify compounds that were effective in reversing MDR at low concentrations, and to determine if the expanded virtual-assisted methods improved on our first-draft attempt. Compounds 56–98 were pre-screened using Resazurin cell viability assays: cells were incubated with 15 µM compound with or without 500 nM PTX for 48 hours, after which cell survival was assessed similar to [39]. Data represent the mean of two separate experiments, with n = 3 samples per experiment (n = 6 total) (S4 Table). The top performing compounds from this initial screen were re-tested with MTT viability assays against DU145-TXR cells, as described below.\n(§3) MTT assays measure the reduction of yellow, water soluble 3-(4,5-dimethylthiazol-2-yl)-2,5-diphenyltetrazolium bromide (MTT) to blue, insoluble formazan crystals by cellular reductase processes in living cells. Cells were trypsinized from monolayers and seeded in complete medium in 96 well plates. Cancerous cell lines (DU145, DU145-TXR, A2780, A2780-ADR) were seeded at 3,000 cells per well in complete RPMI medium. The non-cancerous HFL1 line was seeded at 4,000 cells per well in complete F12K medium, in collagen-treated plates (Collagen Type 1, Gibco). Cells were incubated with experimental compounds for 48 hours at 37 °C and 5% CO2 in a humidified incubator. At 48 hours, MTT was added (20 µL/well of 5 mg/mL MTT in PBS) to each well. After incubation for 4 hours, the media was removed, and the formazan crystals were dissolved in 100 µL DMSO per well. Plates containing the semi-adherent A2780 or A2780-ADR lines were spun at 1400 rpm for 3 minutes prior to aspiration of media, and the addition of DMSO. Plates were shaken for 10 minutes at 500 rpm on an Orbital shaker (LabDoctor from MidSci, St Louis, MO). The absorbance was measured at 570 nm using a Bio-Tek Cytation 5 (Bio-Tek, Winooski, VT). The measured absorbance value was correlated with the number of metabolically active cells in that well, corrected for absorbance of media. […]"}, "A2780 cells": {"system": "A2780 cells", "test": "MTT viability assay, parental A2780 cells, with or without PTX", "conditions": "A2780 cells; for Mean % Survival: mean of 8 or 12 samples; for % Survival (individual sample): single samples", "method": "as §1, §2, §3"}, "A2780-ADR cells": {"system": "A2780-ADR cells", "test": "MTT viability assay, reversal of MDR in P-gp overexpressing A2780-ADR cells", "conditions": "A2780-ADR cells; for Mean % Survival: mean of 12 samples; for % Survival (individual sample): single samples (trials 1-3, samples 1-4)", "method": "as §1, §2, §3"}, "DU145 cells": {"system": "DU145 cells", "test": "MTT viability assay, non-P-gp overexpressing DU145 parental line, with or without PTX", "conditions": "DU145 cells, 48 h", "method": "as §1, with “In addition to the aforementioned cell lines, the chemotherapeutic sensitive A2780 ovarian cancer cells (93112519, Sigma) and the multidrug resistant A2780-ADR (93112520, Sigma) were maintained in complete RPMI media consisting of RPMI-1640 with L-glutamine, 10% fetal bovine serum (FBS; Corning), 100 U/mL penicillin and 100 μg/mL streptomycin in a humidified incubator at 37 °C and 5% CO2.” left out\nCulture of the DU145, DU145-TXR, and HFL1 cell lines was performed as described in [8]. Culture of the A2780 and A2780-ADR cell lines was performed as described in [9]. MTT assays were performed as described in [8] with minor modifications. […] Data represent the mean of two separate experiments, with n = 3 samples per experiment (n = 6 total) (S4 Table).\nMTT assays measure the reduction of yellow, water soluble 3-(4,5-dimethylthiazol-2-yl)-2,5-diphenyltetrazolium bromide (MTT) to blue, insoluble formazan crystals by cellular reductase processes in living cells. Cells were trypsinized from monolayers and seeded in complete medium in 96 well plates. Cancerous cell lines (DU145, DU145-TXR, A2780, A2780-ADR) were seeded at 3,000 cells per well in complete RPMI medium. The non-cancerous HFL1 line was seeded at 4,000 cells per well in complete F12K medium, in collagen-treated plates (Collagen Type 1, Gibco). Cells were incubated with experimental compounds for 48 hours at 37 °C and 5% CO2 in a humidified incubator. At 48 hours, MTT was added (20 µL/well of 5 mg/mL MTT in PBS) to each well. After incubation for 4 hours, the media was removed, and the formazan crystals were dissolved in 100 µL DMSO per well. Plates containing the semi-adherent A2780 or A2780-ADR lines were spun at 1400 rpm for 3 minutes prior to aspiration of media, and the addition of DMSO. Plates were shaken for 10 minutes at 500 rpm on an Orbital shaker (LabDoctor from MidSci, St Louis, MO). The absorbance was measured at 570 nm using a Bio-Tek Cytation 5 (Bio-Tek, Winooski, VT). The measured absorbance value was correlated with the number of metabolically active cells in that well, corrected for absorbance of media. The percent of cell viability (termed ‘survival’ here) was calculated as a percentage of survival of the control condition, which refers to vehicle-treated (DMSO as vehicle) cells, or vehicle-and-chemotherapeutic-treated cells, if testing a compound’s ability to re-sensitize cells to a chemotherapeutic. Percent survival was calculated using the following equation:\n% Survival=100 × absorbance of experimental cells/mean absorbance of control treated cells\nFor DU145-TXR, DU145, HFL1 and A2780 cells – data are the mean ± one standard deviation, 8 samples per compound, from at least two independent trials per compound. […] For A2780-ADR cells, data are the mean ± one standard deviation with 12 samples per compound, from at least two independent trials per compound.\n67 compounds were chosen from computational screens for testing in vitro. A) DU145-TXR cells were exposed to 15 µM experimental compound with or without 500 nM of the P-gp substrate and chemotherapeutic paclitaxel (PTX)."}, "[1]": {"conditions": "single samples, 2 trials x 4 samples, listed as VPL"}}, "note": "Where “and” joins values, the source holds several entries; their conditions need not be identical. Equal entries are not always repeated.", "data": [{"smiles": "COc1ccc(CCN(C)CCCC(C#N)(c2ccc(OC)c(OC)c2)C(C)C)cc1OC", "note": "(stereo not drawn) [VER]", "values": [{"measurement": "% Survival, mean", "setting": "DU145-TXR cells; 15 µM Compound Alone", "value": 86.2, "unit": "%"}, {"measurement": "% Survival", "setting": "DU145-TXR cells; 15 µM Compound Alone, trial 1, sample 1", "value": 98, "unit": "%"}, {"measurement": "% Survival", "setting": "DU145-TXR cells; 15 µM Compound Alone, trial 1, sample 2", "value": 95, "unit": "%"}, {"measurement": "% Survival", "setting": "DU145-TXR cells; 15 µM Compound Alone, trial 1, sample 3", "value": 96, "unit": "%"}, {"measurement": "% Survival", "setting": "DU145-TXR cells; 15 µM Compound Alone, trial 1, sample 4", "value": 90, "unit": "%"}, {"measurement": "% Survival", "setting": "DU145-TXR cells; 15 µM Compound Alone, trial 2, sample 1", "value": 79, "unit": "%"}, {"measurement": "% Survival", "setting": "DU145-TXR cells; 15 µM Compound Alone, trial 2, sample 2", "value": 74, "unit": "%"}, {"measurement": "% Survival", "setting": "DU145-TXR cells; 15 µM Compound Alone, trial 2, sample 3", "value": 72, "unit": "%"}, {"measurement": "% Survival", "setting": "DU145-TXR cells; 15 µM Compound Alone, trial 2, sample 4", "value": 85, "unit": "%"}, {"measurement": "% Survival, mean", "setting": "DU145-TXR cells; 15 µM compound + 500 nM PTX (Paclitaxel, Taxol)", "value": 21.9, "unit": "%"}, {"measurement": "% Survival", "setting": "DU145-TXR cells; 15 µM compound + 500 nM PTX (Paclitaxel, Taxol), trial 1, sample 1", "value": 19, "unit": "%"}, {"measurement": "% Survival", "setting": "DU145-TXR cells; 15 µM compound + 500 nM PTX (Paclitaxel, Taxol), trial 1, sample 2", "value": 23, "unit": "%"}, {"measurement": "% Survival", "setting": "DU145-TXR cells; 15 µM compound + 500 nM PTX (Paclitaxel, Taxol), trial 1, sample 3", "value": 29, "unit": "%"}, {"measurement": "% Survival", "setting": "DU145-TXR cells; 15 µM compound + 500 nM PTX (Paclitaxel, Taxol), trial 1, sample 4", "value": 18, "unit": "%"}, {"measurement": "% Survival", "setting": "DU145-TXR cells; 15 µM compound + 500 nM PTX (Paclitaxel, Taxol), trial 2, sample 1", "value": 23, "unit": "%"}, {"measurement": "% Survival", "setting": "DU145-TXR cells; 15 µM compound + 500 nM PTX (Paclitaxel, Taxol), trial 2, sample 2", "value": 20, "unit": "%"}, {"measurement": "% Survival", "setting": "DU145-TXR cells; 15 µM compound + 500 nM PTX (Paclitaxel, Taxol), trial 2, sample 3", "value": 23, "unit": "%"}, {"measurement": "% Survival", "setting": "DU145-TXR cells; 15 µM compound + 500 nM PTX (Paclitaxel, Taxol), trial 2, sample 4", "value": 21, "unit": "%"}, {"measurement": "Mean % Survival", "setting": "A2780 cells; 15 µM compound + 500 nM PTX", "value": 14.9, "unit": "%"}, {"measurement": "% Survival (individual sample)", "setting": "A2780 cells; 15 µM compound + 500 nM PTX", "value": "17% and 18% and 12% and 50% and 11% and 10% and 9%"}, {"measurement": "Mean % Survival", "setting": "A2780 cells; 15 µM compound alone", "value": 75.9, "unit": "%"}, {"measurement": "% Survival (individual sample)", "setting": "A2780 cells; 15 µM compound alone", "value": "74% and 75% and 86% and 67% and 64% and 83% and 79%"}, {"measurement": "Mean % Survival", "setting": "A2780-ADR cells; 15 µM compound + 500 nM PTX", "value": 52.3, "unit": "%"}, {"measurement": "% Survival (individual sample)", "setting": "A2780-ADR cells; 15 µM compound + 500 nM PTX", "value": "58% and 57% and 53% and 42% and 41% and 51% and 47%"}, {"measurement": "Mean % Survival", "setting": "A2780-ADR cells; 15 µM compound alone", "value": 84.8, "unit": "%"}, {"measurement": "% Survival (individual sample)", "setting": "A2780-ADR cells; 15 µM compound alone", "value": "80% and 82% and 85% and 92% and 94% and 95% and 89% and 81% and 77% and 66%"}]}, {"smiles": "COc1ccc(CCN(C)CCCC(C#N)(c2ccc(OC)c(OC)c2)C(C)C)cc1OC", "note": "(stereo not drawn) [Verapamil, reference compound]", "values": [{"measurement": "% Survival, Mean, 15 µM compound + 500 nM PTX", "setting": "DU145 cells; mean of 8 samples", "value": 8.6, "unit": "%"}, {"measurement": "% Survival, 15 µM Compound alone (individual samples)", "setting": "DU145 cells; [1]", "value": 53, "unit": "%"}, {"measurement": "% Survival, 15 µM compound + 500 nM PTX (individual samples)", "setting": "DU145 cells; [1]", "value": 7, "unit": "%"}, {"measurement": "viability at 15 µM", "setting": "DU145 cells; Homo sapiens, DU-145, 48 h, mean of 8 samples, read-out: % Survival, Mean, 15 µM Compound alone", "value": 45.5, "unit": "%"}]}]}
